Results: patent publication US20110301079A1, “NEUROMEDIN U RECEPTOR AGONISTS AND USES THEREOF” (Instituto di Ricerche di Biologia Molecolare P. Angeletti …, priority 2007, published 2011)
Residues, ends and D or L forms follow the SMILES beside them. *: point of attachment. X1 = CC(C)CCC[C@@H](C)[C@H]1CC[C@H]2[C@@H]3CC=C4C[C@@H](OC(=O)C*)CC[C@]4(C)[C@H]3CC[C@]12C

What was measured:
[1] = test system: mice; experiment: Acute subcutaneous administration of NMS analogs, daily food intake and body weight; format: in vivo; conditions: for food intake: lipidated analogs compared to NMS1, FIG. 10A; for body weight: lipidated analogs compared to NMS1, FIG. 10B
[2] = target: T1, dog NMUR2 (Canis lupus familiaris, UniProt A0A8I3MN59); experiment: FLIPR calcium mobilization assay, dog NMUR2 cell line; format: cell-based; conditions: for % Activity: dog NMUR2, maximum response at 1 μM compared to the human NMU-25 response at the same concentration
T1 construct: expressed in transfected cells
Text: (§1) Human, mouse or rat cDNAs encoding NMUR1 or NMUR2 (as described in Howard et al. Nature 406: 70-74 (2000) were subcloned in pcDNA5 (Invitrogen) and transfected into FLP-In CHO cells and HEK-293 FLP-In cells purchased from Invitrogen (Carlsbad, Calif.) using lipofectamine (Invitrogen). The Flp-In system allows integration and expression of a particular gene of interest at a specific genomic location utilizing the Flp recombinase from yeast. The transfected cells were selected by growth in medium containing 200 μg/mL hygromycin (Invitrogen). Populations were frozen at early passage numbers, and these stocks were used for further studies. Stable clones that expressed the mRNAs were identified functionally by FLIPR as well as by RT-PCR. […] Two different rodent NMUR1 cell lines were thus generated: one with the codon as predicted from the genomic databases and another cell line with an engineered methionine (ATG) as the start codon. The dog NMU receptors were also cloned from intestine RNA (NMUR1) and brain (NMUR2) and stable cell lines were generated as used for the human and rodent cell lines. […] To ensure high levels of expression in a heterologous system, a dog NMUR1 cell line was generated that contains an ATG as the start codon. Additionally, stable cell lines expressing the human receptors were generated in HEK-293/aeq 17 cells which stably express the aequorin gene under the CMV promoter. The human NMUR2 cDNA was cloned into pcDNA3.1 and human NMUR1 was subcloned into pIRES-puro (Clontech, Mountain View, Calif.), after transfection cells were selected in media containing G418 and either hygromycin (NMUR2) or puromycin (NMUR1).
(§2) The NMU receptors signal primarily through Gαq/11 proteins; therefore calcium mobilization assays can be utilized for functional activity.
(§3) Stable cell lines expressing human and or rodent NMUR1 or human NMUR2 receptors are plated at a density of 12,000 cells per well overnight on poly-lysine coated 384-well black-walled plates. The following day, the media is removed from the plates and the cells were subsequently loaded with Fluo-3 (Molecular Probes), a calcium sensitive dye, diluted in FLIPR buffer (1× Hank's buffered saline containing 20 mM HEPES, 0.1% BSA, 2.5 mM probenecid (Sigma) and 1.6 mM TR40). All reagents are from Invitrogen unless otherwise noted. Peptide stocks are resuspended in DMSO at a stock concentration of 2 mM and diluted in FLIPR buffer on the day of the experiment to a 4 μM working stock solution.
(§4) After a 90 minute incubation at room-temperature, cell plates are loaded onto a FLIPR (Molecular Devices) to monitor cellular fluorescence (excitation=488 nm; emission=540 nm) before and after compound/peptide addition. Eight to twelve point dose responses are tested on NMUR-expressing cell lines using FLIPR with 1 μM peptide as the highest dose. The response after peptide addition is taken as the maximum fluorescence units minus the fluorescence immediately prior to stimulation for each well. EC50 values are calculated using GraphPad Prism (San Diego, Calif.) software.
(§5) Percent activity refers to the maximum response at 1 μM compared to the human NMU-25 response at the same concentration.

[3] = target: T2, human NMUR2 (Homo sapiens, UniProt Q9GZQ4); experiment: FLIPR calcium mobilization assay, human NMUR2-expressing cell line; format: cell-based; conditions: for % Activity: human NMUR2, maximum response at 1 μM compared to the human NMU-25 response at the same concentration
T2 construct: expressed in transfected cells; host or cells: FLP-In CHO cells and HEK-293 FLP-In cells (pcDNA5)
Text: as §1, §2, §3, §4, §5

[4] = test system: dog NMUR1-ATG; experiment: FLIPR calcium mobilization assay, dog NMUR1-ATG cell line; format: cell-based; conditions: for EC50: FLIPR; for % Activity: maximum response at 1 μM compared to the human NMU-25 response at the same concentration
Text: as §1, §2, §3, §4, §5

[5] = target: T3, mouse NMUR1-ATG (Mus musculus, UniProt O55040); experiment: FLIPR calcium mobilization assay, mouse NMUR1-ATG cell line; format: cell-based; conditions: for % Activity: maximum response at 1 μM compared to the human NMU-25 response at the same concentration
T3 construct: expressed in transfected cells; host or cells: FLP-In CHO cells and HEK-293 FLP-In cells (pcDNA5)
T3 sequence (O55040 1-428): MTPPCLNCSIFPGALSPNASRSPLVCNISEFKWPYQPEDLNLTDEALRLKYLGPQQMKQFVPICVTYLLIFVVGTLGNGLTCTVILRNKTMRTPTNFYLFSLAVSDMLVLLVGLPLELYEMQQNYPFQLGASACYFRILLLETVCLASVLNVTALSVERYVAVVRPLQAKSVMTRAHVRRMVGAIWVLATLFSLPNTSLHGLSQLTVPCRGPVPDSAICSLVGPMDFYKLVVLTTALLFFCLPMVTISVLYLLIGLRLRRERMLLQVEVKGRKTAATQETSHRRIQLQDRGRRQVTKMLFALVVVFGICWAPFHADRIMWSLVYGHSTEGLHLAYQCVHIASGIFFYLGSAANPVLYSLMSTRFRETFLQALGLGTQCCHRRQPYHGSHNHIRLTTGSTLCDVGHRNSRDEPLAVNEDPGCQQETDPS
Text: as §1, §2, §3, §4, §5

[6] = target: T4, human NMUR1 (Homo sapiens, UniProt Q9HB89); experiment: FLIPR calcium mobilization assay, human NMUR1-expressing cell line; format: cell-based; conditions: for % Activity: human NMUR1, maximum response at 1 μM compared to the human NMU-25 response at the same concentration
T4 construct: expressed in transfected cells; host or cells: FLP-In CHO cells and HEK-293 FLP-In cells (pcDNA5)
T4 sequence (Q9HB89 1-426): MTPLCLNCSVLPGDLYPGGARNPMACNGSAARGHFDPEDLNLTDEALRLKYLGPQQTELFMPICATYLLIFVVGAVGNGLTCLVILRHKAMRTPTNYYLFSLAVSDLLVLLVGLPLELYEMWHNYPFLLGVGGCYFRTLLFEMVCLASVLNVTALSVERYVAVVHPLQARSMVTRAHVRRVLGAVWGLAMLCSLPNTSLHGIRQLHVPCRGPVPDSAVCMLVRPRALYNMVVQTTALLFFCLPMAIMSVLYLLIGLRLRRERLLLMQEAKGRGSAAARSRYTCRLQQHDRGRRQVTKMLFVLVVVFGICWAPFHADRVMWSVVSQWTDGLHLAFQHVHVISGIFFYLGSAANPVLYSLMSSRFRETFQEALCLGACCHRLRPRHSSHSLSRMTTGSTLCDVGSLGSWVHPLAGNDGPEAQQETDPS
Text: as §1, §2, §3, §4, §5

[7] = target: T5, mouse NMUR2 (Mus musculus, UniProt Q8BZ39); experiment: FLIPR calcium mobilization assay, mouse NMUR2 cell line; format: cell-based; conditions: for % Activity: mouse NMUR2, maximum response at 1 μM compared to the human NMU-25 response at the same concentration
T5 construct: expressed in transfected cells; host or cells: FLP-In CHO cells and HEK-293 FLP-In cells (pcDNA5)
Text: as §1, §2, §3, §4, §5

T2 sequence (Q9GZQ4 whole entry): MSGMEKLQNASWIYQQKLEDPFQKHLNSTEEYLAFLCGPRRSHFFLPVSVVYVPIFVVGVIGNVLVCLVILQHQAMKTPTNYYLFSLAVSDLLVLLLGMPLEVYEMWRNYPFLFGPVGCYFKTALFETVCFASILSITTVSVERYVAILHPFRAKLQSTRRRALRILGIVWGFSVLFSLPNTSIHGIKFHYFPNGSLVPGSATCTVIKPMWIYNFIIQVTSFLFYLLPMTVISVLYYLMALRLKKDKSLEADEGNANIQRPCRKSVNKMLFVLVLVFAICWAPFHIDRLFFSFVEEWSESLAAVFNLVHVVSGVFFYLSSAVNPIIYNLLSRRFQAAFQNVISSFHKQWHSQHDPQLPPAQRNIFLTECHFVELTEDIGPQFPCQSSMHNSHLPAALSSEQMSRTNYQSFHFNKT
T5 sequence (Q8BZ39 whole entry): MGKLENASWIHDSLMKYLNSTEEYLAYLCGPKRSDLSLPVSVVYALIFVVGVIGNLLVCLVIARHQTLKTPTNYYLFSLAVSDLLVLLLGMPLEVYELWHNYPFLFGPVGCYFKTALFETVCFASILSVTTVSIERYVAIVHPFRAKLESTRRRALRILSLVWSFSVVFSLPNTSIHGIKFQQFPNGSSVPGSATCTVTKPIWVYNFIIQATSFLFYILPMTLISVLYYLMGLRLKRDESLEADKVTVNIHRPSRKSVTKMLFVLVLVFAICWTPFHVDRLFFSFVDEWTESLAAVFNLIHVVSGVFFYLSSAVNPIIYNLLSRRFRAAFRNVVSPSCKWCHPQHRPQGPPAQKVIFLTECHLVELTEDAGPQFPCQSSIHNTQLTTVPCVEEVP
T1 sequence (A0A8I3MN59 1-378): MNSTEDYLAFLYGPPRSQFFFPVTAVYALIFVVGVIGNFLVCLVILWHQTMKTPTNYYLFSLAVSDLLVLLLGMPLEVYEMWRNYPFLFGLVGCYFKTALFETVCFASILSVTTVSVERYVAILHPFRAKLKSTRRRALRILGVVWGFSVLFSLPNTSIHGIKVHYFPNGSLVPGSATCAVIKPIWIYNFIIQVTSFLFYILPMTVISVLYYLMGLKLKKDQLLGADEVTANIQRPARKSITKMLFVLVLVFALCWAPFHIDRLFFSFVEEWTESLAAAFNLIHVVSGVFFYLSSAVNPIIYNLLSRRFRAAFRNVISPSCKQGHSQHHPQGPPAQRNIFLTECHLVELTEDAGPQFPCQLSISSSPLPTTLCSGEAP

Row | Compound | food intake [1] | body weight [1] | % Activity [2] | % Activity [3] | EC50 [4] | % Activity [4] | % Activity [5] | % Activity [6] | % Activity [7] | EC50 ([2]; dog NMUR2, FLIPR) | EC50 ([3]; human NMUR2, FLIPR) | EC50 ([5]; FLIPR) | EC50 ([6]; human NMUR1, FLIPR) | EC50 ([7]; mouse NMUR2, FLIPR)
1 | CC[C@H](C)[C@H](NC(=O)[C@H](CSCC(=O)O[C@H]1CC[C@@]2(C)C(=CC[C@H]3[C@@H]4CC[C@H]([C@H](C)CCCC(C)C)[C@@]4(C)CC[C@@H]32)C1)NC(C)=O)C(=O)N[C@@H](CC(C)C)C(=O)N[C@@H](CCC(N)=O)C(=O)N[C@@H](CCCNC(=N)N)C(=O)NCC(=O)N[C@@H](CO)C(=O)NCC(=O)N[C@H](C(=O)N[C@@H](C)C(=O)N[C@@H](C)C(=O)N[C@H](C(=O)N[C@@H](CC(=O)O)C(=O)N[C@@H](Cc1ccccc1)C(=O)N[C@H](C(=O)N[C@@H](CCCCN)C(=O)N[C@@H](CCCCN)C(=O)N[C@@H](CC(=O)O)C(=O)N[C@@H](Cc1c[nH]cn1)C(=O)N[C@H](C(=O)N[C@@H](C)C(=O)N[C@H](C(=O)N[C@@H](Cc1c[nH]c2ccccc12)C(=O)NCC(=O)N[C@@H](CCCNC(=N)N)C(=O)N1CCC[C@H]1C(=O)N[C@@H](Cc1ccccc1)C(=O)N[C@@H](Cc1ccccc1)C(=O)N[C@@H](CC(C)C)C(=O)N[C@@H](Cc1ccccc1)C(=O)N[C@@H](CCCNC(=N)N)C(=O)N1CCC[C@H]1C(=O)N[C@@H](CCCNC(=N)N)C(=O)N[C@@H](CC(N)=O)C(N)=O)[C@@H](C)O)[C@@H](C)O)[C@@H](C)O)C(C)C)[C@@H](C)O [NMS2] (Ac-C(X1)ILQRGSGTAAVDFTKKDHTATWGRPFFLFRPRN-NH2) | significantly reduce | significantly reduce | 84% | 16% | ≥ 1 µM | 46% | 39% | 11% | 32% |  |  |  |  | 
2 | CCCCCCCCCCCCCCCC(=O)N[C@H](C(=O)N[C@@H](CC(C)C)C(=O)N[C@@H](CCC(N)=O)C(=O)N[C@@H](CCCNC(=N)N)C(=O)NCC(=O)N[C@@H](CO)C(=O)NCC(=O)N[C@H](C(=O)N[C@@H](C)C(=O)N[C@@H](C)C(=O)N[C@H](C(=O)N[C@@H](CC(=O)O)C(=O)N[C@@H](Cc1ccccc1)C(=O)N[C@H](C(=O)N[C@@H](CCCCN)C(=O)N[C@@H](CCCCN)C(=O)N[C@@H](CC(=O)O)C(=O)N[C@@H](Cc1c[nH]cn1)C(=O)N[C@H](C(=O)N[C@@H](C)C(=O)N[C@H](C(=O)N[C@@H](Cc1c[nH]c2ccccc12)C(=O)NCC(=O)N[C@@H](CCCNC(=N)N)C(=O)N1CCC[C@H]1C(=O)N[C@@H](Cc1ccccc1)C(=O)N[C@@H](Cc1ccccc1)C(=O)N[C@@H](CC(C)C)C(=O)N[C@@H](Cc1ccccc1)C(=O)N[C@@H](CCCNC(=N)N)C(=O)N1CCC[C@H]1C(=O)N[C@@H](CCCNC(=N)N)C(=O)N[C@@H](CC(N)=O)C(N)=O)[C@@H](C)O)[C@@H](C)O)[C@@H](C)O)C(C)C)[C@@H](C)O)[C@@H](C)CC [NMS5] (HELM PEPTIDE1{[CCCCCCCCCCCCCCCC(=O)[*:2]].I.L.Q.R.G.S.G.T.A.A.V.D.F.T.K.K.D.H.T.A.T.W.G.R.P.F.F.L.F.R.P.R.N.[am]}$$$$V2.0) | significantly reduce | significantly reduce | 100% | 93% | ≥ 1 µM | 82% | 83% | 85% | 78% | 0.0188 µM | 0.214 µM | 0.0125 µM | 0.248 µM | 0.0401 µM
